Patent US12630606B2, “Peptide deficient-MHC class I/chaperone compositions and methods” (priority 2018, dated 2026)
Where no end group is shown, it is not given here.

Assays:
H-2D^d = H-2D^d (Mus musculus, UniProt P01900); details: cited from earlier work
H-2D^d/TAPBPR complex = H-2D^d/TAPBPR complex (Mus musculus, UniProt P01900)
H-2L^d/TAPBPR complex = H-2L^d/TAPBPR complex (Mus musculus, UniProt P01897); test: SEC TAPBPR binding with LC-MS peptide occupancy; details: QL9 with 10 mM Gly-Phe dipeptide
[1] = Nano differential scanning fluorimetry (nanoDSF); format: physicochemical; details: FIG. 18B
Experimental: 10 uL of each sample was loaded on the Prometheus NT.48 instrument (NanoTemper) using the high sensitivity capillaries. NanoDSF measurements are performed using a temperature ramp rate of 1° C./min from 25° C. to 95° C. and an LED intensity of 20%. Data is analyzed using the PR Control software (NanoTemper). Melting temperatures (Tm values) correspond to the inflection points of the first derivative of the 330/350 nm fluorescence ratio. Experiments were performed in duplicates and the shaded areas (FIG. 18B) are representative of the error.

Chain of H-2L^d/TAPBPR complex (P01897 25-309 limits assumed): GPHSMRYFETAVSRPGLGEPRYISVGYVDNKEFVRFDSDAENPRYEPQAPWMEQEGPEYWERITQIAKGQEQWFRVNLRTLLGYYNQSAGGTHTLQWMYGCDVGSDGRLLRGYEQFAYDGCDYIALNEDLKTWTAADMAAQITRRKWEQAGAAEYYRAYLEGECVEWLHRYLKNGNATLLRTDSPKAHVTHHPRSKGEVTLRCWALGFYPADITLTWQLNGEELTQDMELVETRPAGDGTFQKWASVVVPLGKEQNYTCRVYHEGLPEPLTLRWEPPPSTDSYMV
Chain of H-2L^d/TAPBPR complex (P61769 21-119 partner): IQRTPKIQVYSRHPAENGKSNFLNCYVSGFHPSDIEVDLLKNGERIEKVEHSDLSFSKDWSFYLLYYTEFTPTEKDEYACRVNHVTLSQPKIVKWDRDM
Chain of H-2D^d/TAPBPR complex (P01900 25-311): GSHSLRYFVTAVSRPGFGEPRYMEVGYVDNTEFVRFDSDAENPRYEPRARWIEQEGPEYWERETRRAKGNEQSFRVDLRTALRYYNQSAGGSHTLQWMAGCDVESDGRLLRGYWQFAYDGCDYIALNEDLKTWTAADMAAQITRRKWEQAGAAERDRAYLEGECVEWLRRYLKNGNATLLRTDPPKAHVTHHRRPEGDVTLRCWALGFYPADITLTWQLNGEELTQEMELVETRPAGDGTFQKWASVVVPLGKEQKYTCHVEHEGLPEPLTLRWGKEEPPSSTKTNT
Chain of H-2D^d/TAPBPR complex (P61769 21-119, further chain): as the sequence (P61769 21-119 partner) above
Chain of H-2D^d (P61769 21-119): as the sequence (P61769 21-119 partner) above
Chain of H-2D^d (P01900 25-311): as the sequence (P01900 25-311) above

Q: With GPGRAFVTI [gP18-I10] as the substance, how does the “increase in the peptide off-rate relative to full-length P18-I10” value (H-2D^d) read?
A: Its value is 100 fold.

Q: And the “peptide occupancy in the presence of TAPBPR” value (from here on “peptide occupancy”) (H-2D^d/TAPBPR complex)?
A: The value was “dissociates in the presence of TAPBPR”.

Q: For QLSPFPFDL [QL9, reference compound], which “peptide occupancy” value (H-2L^d/TAPBPR complex) is on record?
A: The value was “could obtain empty H-2L^d:TAPBPR complexes”.

Q: For “TAPBPR: TAPasin Binding Protein Related chaperone, recombinant luminal domain”, which “Tm (nanoDSF inflection point)” value [1] is on record?
A: The value was 52.5 °C.

Q: Which “peptide occupancy” value (H-2L^d/TAPBPR complex) does the source give for “_PNVNIHNF (not fully specified (N-terminus); printed as _PNVNIHNF) [gp29]” here?
A: Its value is “remained bound”.
